According to PubChem BioAssay AID1259407 (Chemical Carcinogenesis Research Information System (CCRIS), 2018):
Calls of active or inactive are those of the source. How the calls were made is not given here.

System: CCRIS mutagenicity, Ames/micronucleus/aberration tests
Assay: CCRIS mutagenicity studies
[1] = Test System: AMES SALMONELLA TYPHIMURIUM, Strain/Indicator: TA98, Metabolic Activation: NONE, Method: PREINCUBATION
[2] = Test System: AMES SALMONELLA TYPHIMURIUM, Strain/Indicator: TA100, Metabolic Activation: NONE, Method: PREINCUBATION

## CC(=O)NNC(=O)c1ccccn1
Test System: AMES SALMONELLA TYPHIMURIUM, Strain/Indicator: TA98, Metabolic Activation: HAMSTER, LIVER, S-9, AROCLOR 1254, Method: PREINCUBATION
  mutagenic call: inactive; negative
[1]
  mutagenic call: inactive; negative
Test System: AMES SALMONELLA TYPHIMURIUM, Strain/Indicator: TA98, Metabolic Activation: RAT, LIVER, S-9, AROCLOR 1254, Method: PREINCUBATION
  mutagenic call: inactive; negative
Test System: AMES SALMONELLA TYPHIMURIUM, Strain/Indicator: TA100, Metabolic Activation: HAMSTER, LIVER, S-9, AROCLOR 1254, Method: PREINCUBATION
  mutagenic call: inactive; negative
[2]
  mutagenic call: inactive; negative
Test System: AMES SALMONELLA TYPHIMURIUM, Strain/Indicator: TA100, Metabolic Activation: RAT, LIVER, S-9, AROCLOR 1254, Method: PREINCUBATION
  mutagenic call: inactive; negative
Test System: AMES SALMONELLA TYPHIMURIUM, Strain/Indicator: TA1535, Metabolic Activation: HAMSTER, LIVER, S-9, AROCLOR 1254, Method: PREINCUBATION
  mutagenic call: inactive; negative
Test System: AMES SALMONELLA TYPHIMURIUM, Strain/Indicator: TA1535, Metabolic Activation: NONE, Method: PREINCUBATION
  mutagenic call: inactive; negative
Test System: AMES SALMONELLA TYPHIMURIUM, Strain/Indicator: TA1535, Metabolic Activation: RAT, LIVER, S-9, AROCLOR 1254, Method: PREINCUBATION
  mutagenic call: inactive; negative
Test System: AMES SALMONELLA TYPHIMURIUM, Strain/Indicator: TA1537, Metabolic Activation: HAMSTER, LIVER, S-9, AROCLOR 1254, Method: PREINCUBATION
  mutagenic call: inactive; negative
Test System: AMES SALMONELLA TYPHIMURIUM, Strain/Indicator: TA1537, Metabolic Activation: NONE, Method: PREINCUBATION
  mutagenic call: inactive; negative
Test System: AMES SALMONELLA TYPHIMURIUM, Strain/Indicator: TA1537, Metabolic Activation: RAT, LIVER, S-9, AROCLOR 1254, Method: PREINCUBATION
  mutagenic call: inactive; negative

## c1ccc2cc3c(ccc4ccccc43)cc2c1
Test System: AMES SALMONELLA TYPHIMURIUM, Strain/Indicator: TA98, Metabolic Activation: NONE, Method: STANDARD PLATE
  mutagenic call: inactive; negative
Test System: AMES SALMONELLA TYPHIMURIUM, Strain/Indicator: TA98, Method: STANDARD PLATE
  mutagenic call: active; positive
Test System: AMES SALMONELLA TYPHIMURIUM, Strain/Indicator: TA100, Metabolic Activation: NONE, Method: STANDARD PLATE
  mutagenic call: inactive; negative
Test System: AMES SALMONELLA TYPHIMURIUM, Strain/Indicator: TA100, Metabolic Activation: RAT, INTACT HEPATOCYTES, AROCLOR 1254, Method: PREINCUBATION
  mutagenic call: active; positive
Test System: AMES SALMONELLA TYPHIMURIUM, Strain/Indicator: TA100, Metabolic Activation: RAT, LIVER, S-9, 3-METHYLCHOLANTHRENE, Method: STANDARD PLATE
  mutagenic call: active; positive
Test System: AMES SALMONELLA TYPHIMURIUM, Strain/Indicator: TA100, Metabolic Activation: RAT, LIVER, S-9, AROCLOR 1254, Method: STANDARD PLATE
  mutagenic call: active; positive
Test System: AMES SALMONELLA TYPHIMURIUM, Strain/Indicator: TA100, Metabolic Activation: RAT, LIVER, S-9, PHENOBARBITAL, Method: STANDARD PLATE
  mutagenic call: inactive; negative
Test System: AMES SALMONELLA TYPHIMURIUM, Strain/Indicator: TA100, Metabolic Activation: RAT, NADPH-FORTIFIED HOMOGENIZED HEPATOCYTES, AROCLOR 1254, Method: PREINCUBATION
  mutagenic call: active; positive
Test System: AMES SALMONELLA TYPHIMURIUM, Strain/Indicator: TA100, Metabolic Activation: RAT, SONICATED HEPATOCYTES, AROCLOR 1254, Method: PREINCUBATION
  mutagenic call: active; positive
Test System: AMES SALMONELLA TYPHIMURIUM, Strain/Indicator: TA100, Method: STANDARD PLATE
  mutagenic call: active; positive
Test System: AMES SALMONELLA TYPHIMURIUM, Strain/Indicator: TA1537, Metabolic Activation: MOUSE, LIVER, S-9, Method: STANDARD PLATE
  mutagenic call: active; positive
Test System: AMES SALMONELLA TYPHIMURIUM, Strain/Indicator: TA1538, Metabolic Activation: NONE, Method: STANDARD PLATE
  mutagenic call: inactive; negative
Test System: AMES SALMONELLA TYPHIMURIUM, Strain/Indicator: TA1538, Metabolic Activation: RAT, LIVER, S-9, AROCLOR 1254, Method: STANDARD PLATE
  mutagenic call: inactive; negative
Test System: AMES SALMONELLA TYPHIMURIUM, Strain/Indicator: TA1538, Metabolic Activation: RAT, LIVER, S-9, PHENOBARBITAL, Method: STANDARD PLATE
  mutagenic call: active; positive
Test System: CHINESE HAMSTER V-79, Strain/Indicator: V-79/6-THIOGUANINE, Metabolic Activation: RAT, LIVER, S-9, PHENOBARBITAL, Method: STANDARD PLATE
  mutagenic call: active; positive
Test System: CHINESE HAMSTER V-79, Strain/Indicator: V-79/OUABAIN, Metabolic Activation: CELL-MEDIATED, Method: STANDARD PLATE
  mutagenic call: active; positive
Test System: E. COLI, Strain/Indicator: WP2 UVRA, Metabolic Activation: HAMSTER, LIVER, S-9, AROCLOR 1254, Method: STANDARD PLATE
  mutagenic call: inactive; negative
Test System: E. COLI, Strain/Indicator: WP2 UVRA, Metabolic Activation: HAMSTER, LIVER, S-9, Method: STANDARD PLATE
  mutagenic call: inactive; negative
Test System: E. COLI, Strain/Indicator: WP2 UVRA, Metabolic Activation: MOUSE, LIVER, S-9, AROCLOR 1254, Method: STANDARD PLATE
  mutagenic call: inactive; negative
Test System: E. COLI, Strain/Indicator: WP2 UVRA, Metabolic Activation: MOUSE, LIVER, S-9, Method: STANDARD PLATE
  mutagenic call: inactive; negative
Test System: E. COLI, Strain/Indicator: WP2 UVRA, Metabolic Activation: NONE, Method: STANDARD PLATE
  mutagenic call: inactive; negative
Test System: E. COLI, Strain/Indicator: WP2 UVRA, Metabolic Activation: RAT, LIVER, S-9, AROCLOR 1254, Method: STANDARD PLATE
  mutagenic call: inactive; negative
Test System: E. COLI, Strain/Indicator: WP2 UVRA, Metabolic Activation: RAT, LIVER, S-9, Method: STANDARD PLATE
  mutagenic call: inactive; negative
Test System: MOUSE LYMPHOMA, Strain/Indicator: L5178Y (TK+/TK-), Metabolic Activation: NONE, Method: SUSPENSION/PLATE
  mutagenic call: active; positive
Test System: MOUSE LYMPHOMA, Strain/Indicator: L5178Y (TK+/TK-), Metabolic Activation: RAT, LIVER, S-9, AROCLOR 1254, Method: SUSPENSION/PLATE
  mutagenic call: active; positive
Test System: MOUSE LYMPHOMA, Strain/Indicator: L5178Y (TK+/TK-), Metabolic Activation: RAT, LIVER, S-9, Method: SUSPENSION/PLATE
  mutagenic call: active; positive

## Nc1c(Cl)cc([N+](=O)[O-])cc1[N+](=O)[O-]
End Point: IN VITRO CHROMOSOMAL ABERRATIONS, Test System: CHL CELLS, Metabolic Activation: RAT, LIVER, S-9, SODIUM PHENOBARBITAL AND 5,6-BENZOFLAVONE
  mutagenic call: active; positive (structural changes); authors report equivocal results for ploidy chang
[1]
  mutagenic call: active; positive
Test System: AMES SALMONELLA TYPHIMURIUM, Strain/Indicator: TA98, Metabolic Activation: RAT, LIVER, S-9, KANECHLOR 500, Method: PREINCUBATION
  mutagenic call: active; positive
Test System: AMES SALMONELLA TYPHIMURIUM, Strain/Indicator: TA98, Metabolic Activation: RAT, LIVER, S-9, PHENOBARBITAL AND BETA-NAPHTHOFLAVONE, Method: PREINCUBATION
  mutagenic call: active; positive
[2]
  mutagenic call: active; positive
Test System: AMES SALMONELLA TYPHIMURIUM, Strain/Indicator: TA100, Metabolic Activation: RAT, LIVER, S-9, KANECHLOR 500, Method: PREINCUBATION
  mutagenic call: active; positive
Test System: AMES SALMONELLA TYPHIMURIUM, Strain/Indicator: TA100, Metabolic Activation: RAT, LIVER, S-9, PHENOBARBITAL AND BETA-NAPHTHOFLAVONE, Method: PREINCUBATION
  mutagenic call: active; positive
